According to patent US20070203118A1, “SUBSTITUTED TETRAHYDROISOQUINOLINES USED IN THE FORM OF MMP INHIBITORS, METHOD FOR THE PRODUCTION AND USE THEREOF IN THE FORM OF DRUGS” (SANOFI-AVENTIS DEUTSCHLAND GMBH, priority 2004, published 2007):

Assays:
[1] = biological target: T1, catalytic domain of human collagenase-1 (MMP-1) (Homo sapiens, UniProt P03956); experiment: Enzymatic activity of the catalytic domain of human collagenase-1 (MMP-1), fluorogenic substrate; assay type: biochemical
T1 construct: Determination of the Enzymatic Activity of the Catalytic Domain of Human Collagenase-1 (MMP-1); purchased Biocol, Potsdam MMP1
T1 sequence (P03956 100-269 limits assumed): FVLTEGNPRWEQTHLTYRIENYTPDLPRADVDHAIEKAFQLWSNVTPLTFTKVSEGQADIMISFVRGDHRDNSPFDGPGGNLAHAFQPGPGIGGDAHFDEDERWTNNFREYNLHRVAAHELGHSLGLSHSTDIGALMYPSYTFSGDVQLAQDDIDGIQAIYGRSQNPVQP
Procedure: Determination of the Enzymatic Activity of the Catalytic Domain of Human Collagenase-1 (MMP-1)
Activation of the Pro enzyme: 2 parts by volume of Pro enzyme are incubated with 1 part by volume of APMA solution at 37° C. for 1 hour. The APMA solution is prepared from a 10 mmol/l p-aminophenylmercuric acetate solution in 0.1 mmol/l NaOH by dilution with 3 parts by volume of tris/HCl buffer pH7.5 (see below). The pH is adjusted to between 7.0 and 7.5 by adding 1 mmol/l HCl. After activation of the enzyme, it is diluted with the tris/HCl buffer to a concentration of 2.5 μg/ml.
The enzymic activity is measured by incubating 10 μl of enzyme solution with 10 μl of a 3% strength (v/v) buffered dimethyl sulfoxide solution (reaction 1) for 15 minutes. The enzyme inhibitor activity is measured by incubating 10 μl of enzyme solution with 10 μl of a 3% strength (v/v) buffered dimethyl sulfoxide solution which contains the enzyme inhibitor (reaction 2).
The enzymic reaction both in the case of reaction 1 and in the case of reaction 2 is followed after addition of 10 μl of a 3% strength (v/v) aqueous dimethyl sulfoxide solution which contains 0.3 mmol/l of the substrate by fluorescence spectroscopy (328 nm (extinction)/393 nm (emission)), and the enzymic activity is presented as increase in extinction per minute.
The effect of the inhibitor is calculated as percentage inhibition by the following formula: % inhibition=100−[(increase in extinction/minute in reaction 2)/increase in extinction/minute in reaction 1)×100].
The IC50, i.e. the inhibitor concentration necessary for 50% inhibition of the enzymic activity, is determined graphically by plotting the percentage inhibitions at various inhibitor concentrations.
The buffer solution contains 0.05% Brij (Sigma, Deisenhofen, Germany) and 0.1 mol/l tris/HCl, 0.1 mol/l NaCl, 0.01 mol/l CaCl2 (pH=7.5).
The enzyme solution contains 2.5 μg/ml of the enzyme domain.
The substrate solution contains 0.3 mmol/l of the fluorogenic substrate (7-methoxycoumarin-4-yl)acetyl-Pro-Leu-Gly-Leu-3-(2′,4′-dinitrophenyl)-L-2,3-diaminopropionyl-Ala-Arg-NH2 (Bachem, Heidelberg, Germany).

[2] = biological target: T2, catalytic domain of human stromelysin (MMP-3) (Homo sapiens, UniProt P08254); experiment: Enzymatic activity of the catalytic domain of human stromelysin (MMP-3), fluorogenic substrate; assay type: biochemical
T2 construct: Preparation and Determination of the Enzymatic Activity of the Catalytic Domain of Human Stromelysin (MMP-3); made in house
Procedure: Preparation and Determination of the Enzymatic Activity of the Catalytic Domain of Human Stromelysin (MMP-3) and of Neutrophil Collagenase (MMP-8)
The two enzymes stromelysin (MMP-3) and neutrophil collagenase (MMP-8) were prepared by the method of Ye et al. (Biochemistry; 31 (1992) pages 11 231-11 235). The enzymic activity or the effect of the enzyme inhibitor was measured by incubating 10 μl of enzyme solution with 10 μl of a 3% strength (v/v) buffered dimethyl sulfoxide solution which contained the enzyme inhibitor where appropriate, for 15 minutes. After addition of 10 μl of a 3% strength (v/v) aqueous dimethyl sulfoxide solution which contained 1 mmol/l of the substrate, the enzymic reaction was followed by fluorescence spectroscopy (328 nm (ex)/393 nm(em)). The enzymic activity is presented as increase in extinction/minute.
The IC50 values listed in Table 4 were determined as the inhibitor concentrations leading in each case to 50% inhibition of the enzyme. The buffer solution contained 0.05% Brij (Sigma, Deisenhofen, Germany) and 0.1 mol/l Tris/HCl, 0.1 mol/l NaCl, 0.01 mol/l CaCl2 and 0.1 mol/l piperazine-N,N′-bis[2-ethanesulfonic acid] (pH=7.5).
The MMP-3 enzyme solution contained 2.3 μg/ml and the MMP-8 enzyme solution 0.6 μg/ml of one of the enzyme domains prepared by the method of Ye et al. The substrate solution contained 1 mmol/l of the fluorogenic substrate (7-methoxycoumarin-4-yl)acetyl-Pro-Leu-Gly-Leu-3-(2′,4′-dinitrophenyl)-L-2,3-diaminopropionyl-Ala-Arg-NH2 (Bachem, Heidelberg, Germany).

T2 sequence (P08254 100-272 limits assumed): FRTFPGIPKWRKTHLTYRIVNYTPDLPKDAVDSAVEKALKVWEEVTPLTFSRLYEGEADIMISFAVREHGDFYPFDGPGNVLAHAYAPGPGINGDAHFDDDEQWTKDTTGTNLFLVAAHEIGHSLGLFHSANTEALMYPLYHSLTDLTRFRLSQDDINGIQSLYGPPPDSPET

IC50 [1] [nM] | IC50 [2] [nM] | Compound
500 | 25 | O=C(NO)[C@H]1c2ccccc2CCN1S(=O)(=O)c1ccc(Oc2ccncc2)cc1 [Compound 11]
1000 | 33 | O=C(NO)[C@H]1c2ccccc2CCN1S(=O)(=O)c1ccc(Oc2ccc(C(F)(F)F)cc2)cc1 [Compound 21, (R)-2-[4-(4-trifluoromethylphenoxy)benzenesulfonyl]-1,2,3,4-tetrahydro-isoquinoline-1-hydroxycarboxamide]
42 | 23 | O=C(NO)[C@H]1c2ccccc2CCN1S(=O)(=O)c1ccc(Oc2ccc(Cl)cc2)cc1 [Compound 9]
300 | 23 | 2-{2-[4-(4-fluorophenoxy)phenyl]ethanesulfonyl}-1,2,3,4-tetrahydroisoquinoline-1-hydroxycarboxamide [Compound 20]
89 | 26 | (R)-4-(1-hydroxycarbamoyl-3,4-dihydro-1H-isoquinoline-2-sulfonyl)phenyl benzoate [Compound 48]

Further lines, the compound ahead of its results:

Compound | IC50 [1] [nM] | IC50 [2] [nM]
COc1ccc(F)c2c1[C@H](C(=O)NO)N(S(=O)(=O)c1ccc(-c3ccc(Cl)cc3)cc1)CC2 [Compound 18] | 4000 | 800
COc1cc2c(cc1OC)[C@@H](C(=O)NO)N(S(=O)(=O)c1ccc(-c3ccc(Cl)cc3)cc1)CC2 [Compound 15] | 300 | 20
O=C(NO)[C@H]1c2ccccc2CCN1S(=O)(=O)c1ccc(Oc2ccc(OC(F)(F)F)cc2)nc1 [Compound 43, (R)-2-[6-(4-trifluoromethoxyphenoxy)pyridine-3-sulfonyl]-1,2,3,4-tetrahydro-isoquinoline-1-hydroxycarboxamide] | > 10000 | 300
O=C(NO)[C@H]1c2ccccc2CCN1S(=O)(=O)c1ccc(Oc2ccc(Cl)cc2)nc1 [Compound 45, (R)-2-[6-(4-chlorophenoxy)pyridine-3-sulfonyl]-1,2,3,4-tetrahydroisoquinoline-1-hydroxycarboxamide] | 2000 | 45
O=C(NO)[C@H]1c2ccccc2CCN1S(=O)(=O)c1ccc(Oc2ccc(OCC(F)(F)F)cc2)cc1 [Compound 22] | 1600 | 520
